Reference: patent publication US4447422A, “Penicillins and compositions containing them” (Beecham Group p.1.c., priority 1981, dated 1984)
Values after ≈ are worked out from the molar mass of the structure shown. Where a name gives a salt, the structure may show the parent alone.

What was measured:
E coli NCTC 10418 = experiment: antibacterial activity (MIC); type: cell-based; conditions: Escherichia coli, NCTC10418; Table 2; gram negative organism E. coli NCTC 10418
Staph aureus Oxford = experiment: antibacterial activity (MIC); type: cell-based; conditions: Staphylococcus aureus; Table 2; gram positive organism Staph. aureus Oxford; read-out: MIC

MIC (E coli NCTC 10418) | MIC (Staph aureus Oxford) | SMILES
2.5 µg/mL | 0.5 µg/mL | CCCNc1ncc(C(=O)N[C@@H](C(=O)N[C@@H]2C(=O)N3[C@@H]2SC(C)(C)[C@@H]3C(=O)O)c2ccccc2)c(O)n1 [Example 15, 6β-[D-2-(2-n-propylamino-4-hydroxypyrimidine-5-carbonylamino)-2-phenyl] acetamido penicillanic acid, disodium salt]
5 µg/mL | 2.5 µg/mL | CCCCNc1ncc(C(=O)N[C@@H](C(=O)N[C@@H]2C(=O)N3[C@@H]2SC(C)(C)[C@@H]3C(=O)O)c2ccc(O)cc2)c(O)n1 [Example 17, 6β-[D-2-(2-n-Butylamino-4-hydroxypyrimidine-5-carbonylamino)-2-(4-hydroxyphenyl)] acetamido penicillanic acid, disodium salt]
10 µg/mL | 1.2 µg/mL | COc1cc(CNc2ncc(C(=O)N[C@@H](C(=O)N[C@@H]3C(=O)N4[C@@H]3SC(C)(C)[C@@H]4C(=O)O)c3ccccc3)c(O)n2)ccc1O [Example 8, 6β-[D-2-(2[4-Hydroxy-3-methoxybenzylamino]-4-hydroxypyrimidine-5-carbonylamino)-2-phenyl] acetamido penicillanic acid, disodium salt]
5 µg/mL (≈ 8.24 µM) | 1.2 µg/mL (≈ 1.98 µM) | CC1(C)S[C@@H]2[C@H](NC(=O)[C@H](NC(=O)c3cnc(NCCc4ccccc4)nc3O)c3ccc(O)cc3)C(=O)N2[C@H]1C(=O)O [Example 5, 6β-[D-2-(2-(2-phenylethyl-1-amino)-4-hydroxypyrimidine-5-carbonylamino)-2-(4-hydroxyphenyl)] acetamido penicillanic acid]
5 µg/mL | 0.5 µg/mL | CC(C)COC(=O)Nc1ncc(C(=O)N[C@@H](C(=O)N[C@@H]2C(=O)N3[C@@H]2SC(C)(C)[C@@H]3C(=O)O)c2ccccc2)c(O)n1 [Example 24, 6β-D-2-(2-Isobutyloxycarbonylamino-4-hydroxypyrimidine-5-carbonylamino)-2-phenyl]acetamido penicillanic acid, disodium salt]
5 µg/mL | 0.5 µg/mL | COCCNc1ncc(C(=O)N[C@@H](C(=O)N[C@@H]2C(=O)N3[C@@H]2SC(C)(C)[C@@H]3C(=O)O)c2ccccc2)c(O)n1 [Example 13, 6β-[D-2-(2-Methoxyethyl-1-amino]-4-hydroxypyrimidine-5-carbonylamino)-2-phenyl] acetamido penicillanic acid, disodium salt]
5 µg/mL | 0.2 µg/mL | C=CCNc1ncc(C(=O)N[C@@H](C(=O)N[C@@H]2C(=O)N3[C@@H]2SC(C)(C)[C@@H]3C(=O)O)c2ccccc2)c(O)n1 [Example 21, 6β-[D-2-(2-Allylamino-4-hydroxypyrimidine-5-carbonylamino)2-phenyl] acetamido penicillanic acid, disodium salt]
5 µg/mL | 0.25 µg/mL | COc1ccc(CNc2ncc(C(=O)N[C@@H](C(=O)N[C@@H]3C(=O)N4[C@@H]3SC(C)(C)[C@@H]4C(=O)O)c3ccccc3)c(O)n2)cc1 [Example 9, 6β-[D-2-(2-[4-Methoxybenzylamino]-4-hydroxypyrimidine-5-carbonylamino)-2-phenyl] acetamido penicillanic acid, disodium salt]
5 µg/mL (≈ 8.18 µM) | 0.2 µg/mL (≈ 0.327 µM) | CC1(C)S[C@@H]2[C@H](NC(=O)[C@H](NC(=O)c3cnc(NCc4ccc(Cl)cc4)nc3O)c3ccccc3)C(=O)N2[C@H]1C(=O)O [Example 6, 6β-D-[2-(2-[4Chlorobenzylamino]-4-hydroxypyrimidine-5-carbonylamino)-2-phenyl] acetamido penicillanic acid]
5 µg/mL | 1.25 µg/mL | CC1(C)S[C@@H]2[C@H](NC(=O)[C@H](NC(=O)c3cnc(NCc4ccccc4)nc3O)c3ccc(O)cc3)C(=O)N2[C@H]1C(=O)O [Example 4, 6β-[D-2-(2-Benzylamino-4-hydroxypyrimidine-5-carbonylamino)-2-(4-hydroxyphenyl)] acetamido penicillanic acid disodium salt]
